The values below come from ChEMBL document CHEMBL3046521, “Synthesis and antitumor activity of (4-hydroxyphenyl)[5-substituted alkyl/aryl)-2-thioxo-1,3,4-thiadiazol-3-yl]methanone and [(3,4-disubstituted)-1,3-thiazol-2ylidene]-4-hydroxybenzohydrazide” (2011).

Holding throughout (type): functional
One assay relates to LOX IMVI. Description: Anticancer activity in Homo sapiens (human) LOXIMVI cells assessed as cell growth at 10^-5 M after 48 hr by SRB assay. The conditions noted are these: read-out: Activity.
In the next assay the test system is SF-295. The assay can be described thus: Cytotoxicity against Homo sapiens (human) SF295 cells after 48 hr by sulforhodamine B assay. The conditions noted are these: SF-295, 48 h; for TGI: read-out: pTGI (converted). On the technique in general: Sulforhodamine B stains cellular protein and so reports cell mass.
For another assay, the system named is HCT-116. Description: Cytotoxicity against Homo sapiens (human) HCT116 cells after 48 hr by sulforhodamine B assay. Conditions: HCT-116, 48 h.
The subject of assay [1] is CAKI-1. The assay can be described thus: Cytotoxicity against Homo sapiens (human) Caki1 cells after 48 hr by sulforhodamine B assay. The conditions noted are these: CAKI-1, 48 h; for TGI: read-out: pTGI (converted).
Assay [2] can be described thus: Anticancer activity in Homo sapiens (human) NCI-ADR-RES cells assessed as cell growth at 10^-5 M after 48 hr by SRB assay. The conditions noted are these: read-out: Activity.
For another assay, the system named is HL-60(TB). The assay can be described thus: Cytotoxicity against Homo sapiens (human) HL-60(TB) cells after 48 hr by sulforhodamine B assay. Conditions: HL-60, 48 h; for CC50: read-out: pLC50 (the source's name) (converted); for TGI: read-out: pTGI (converted).
For the next assay, the system named is Malme-3M. The assay can be described thus: Cytotoxicity against Homo sapiens (human) MALME-3M cells after 48 hr by sulforhodamine B assay.
The next assay relates to PC-3. The assay can be described thus: Cytotoxicity against Homo sapiens (human) PC3 cells after 48 hr by sulforhodamine B assay. Conditions: PC-3, 48 h; for TGI: read-out: pTGI (converted).
The next assay concerns HOP-92. Description: Cytotoxicity against Homo sapiens (human) HOP92 cells after 48 hr by sulforhodamine B assay. Conditions: HOP-92, 48 h; for TGI: read-out: pTGI (converted).
In a further assay the test system is OVCAR-3. The assay can be described thus: Cytotoxicity against Homo sapiens (human) OVCAR3 cells after 48 hr by sulforhodamine B assay. Conditions: OVCAR-3, 48 h.
For the next assay, the system named is MCF7. Description: Cytotoxicity against Homo sapiens (human) MCF7 cells after 48 hr by sulforhodamine B assay. Conditions: MCF7, 48 h.
The test system of assay [3] is CAKI-1. The assay can be described thus: Anticancer activity in Homo sapiens (human) Caki1 cells assessed as cell growth at 10^-5 M after 48 hr by SRB assay. The conditions noted are these: CAKI-1, 48 h, read-out: Activity.
Assay [4] relates to HCC 2998. The assay can be described thus: Cytotoxicity against Homo sapiens (human) HCC2998 cells after 48 hr by sulforhodamine B assay. Conditions: HCC 2998, 48 h.
The subject of assay [5] is HCC 2998. Description: Anticancer activity in Homo sapiens (human) HCC2998 cells assessed as cell growth at 10^-5 M after 48 hr by SRB assay. The conditions noted are these: HCC 2998, 48 h, read-out: Activity.
The subject of a further assay is MDA-MB-435. The assay can be described thus: Cytotoxicity against Homo sapiens (human) MDA-MB-435 cells after 48 hr by sulforhodamine B assay. The conditions noted are these: MDA-MB-435, 48 h.
Assay [6] can be described thus: Cytotoxicity against Homo sapiens (human) NCI-ADR-RES cells after 48 hr by sulforhodamine B assay.
A further assay has as its system NCI-H522. The assay can be described thus: Cytotoxicity against Homo sapiens (human) NCI-H522 cells after 48 hr by sulforhodamine B assay. Conditions: NCI-H522, 48 h.
The next assay deals with MDA-MB-468. The assay can be described thus: Cytotoxicity against Homo sapiens (human) MDA-MB-468 cells after 48 hr by sulforhodamine B assay. The conditions noted are these: MDA-MB-468, 48 h.
A further assay relates to KM12. Description: Cytotoxicity against Homo sapiens (human) KM12 cells after 48 hr by sulforhodamine B assay. Conditions: KM12, 48 h.
The test system of another assay is CCRF-CEM. The assay can be described thus: Cytotoxicity against Homo sapiens (human) CCRF-CEM cells after 48 hr by sulforhodamine B assay.

`O=C(c1ccc(O)cc1)n1nc(-c2ccc(O)cc2)sc1=S`: the growth at 10 µM in the assay with LOX IMVI was -0.61%.
For the compound `COc1ccc(-n2c(-c3ccc(Cl)cc3)cs/c2=N\NC(=O)c2ccc(O)cc2)c(OC)c1`, the GI50 with SF-295 is 27.5 µM; with HCT-116 it was 27.5 µM; in the assay with CAKI-1 [1] it was 22.9 µM; in the assay on HL-60(TB) it was 17.8 µM; in the assay on Malme-3M, 25.1 µM; with PC-3 it was 18.2 µM. Also, the GI50 in the assay with HOP-92 was 14.5 µM; with OVCAR-3, 26.9 µM; in the assay with MCF7, 25.1 µM. For the same compound, the LC50 in the assay on SF-295, with HCT-116, with CAKI-1 [1], with Malme-3M, in the assay with PC-3 and with HOP-92 was more than 100 µM each time. Further, the LC50 in the assay on OVCAR-3 and in the assay on MCF7 was more than 100 µM throughout. Moreover, the TGI in the assay on SF-295 is more than 100 µM; with HCT-116 (read-out: pTGI (converted)) it was more than 100 µM; in the assay on CAKI-1 [1], more than 100 µM; in the assay on HL-60(TB) it was 81.3 µM; with Malme-3M (read-out: pTGI (converted)), 91.2 µM; in the assay with PC-3, more than 100 µM. Moreover, the TGI in the assay with HOP-92 was 64.6 µM; in the assay on OVCAR-3 (read-out: pTGI (converted)), 83.2 µM; in the assay on MCF7 (read-out: pTGI (converted)), more than 100 µM. The growth at 10 µM in [2] is -1.18%. Also, the CC50 in the assay with HL-60(TB) was more than 100 µM.
Turning to `COc1ccc(-c2nn(C(=O)c3ccc(O)cc3)c(=S)s2)cc1`, the growth at 10 µM in the assay with CAKI-1 [3] came out at 68%.
Take `O=C(N/N=c1\scc(-c2ccc(Cl)cc2)n1-c1ccc(Cl)cc1Cl)c1ccc(O)cc1`: the GI50 in the assay with SF-295 is 2.82 µM; in the assay on HCC 2998 [4], 1.95 µM; with MDA-MB-435, 2.88 µM; in the assay with CAKI-1 [1] it was 3.31 µM; with HL-60(TB), 0.302 µM; in assay [6] it was 2.95 µM. In addition, the GI50 with PC-3 was 3.39 µM; in the assay on NCI-H522, 2.57 µM; with MDA-MB-468, 3.89 µM; in the assay on KM12, 2.63 µM; in the assay with HOP-92, 2.95 µM; with CCRF-CEM, 0.977 µM. The LC50 in the assay on SF-295 is more than 100 µM; with HCC 2998 [4], 53.7 µM; in the assay with MDA-MB-435 it was more than 100 µM; in the assay with CAKI-1 [1], more than 100 µM; in [6] it was more than 100 µM; in the assay with PC-3 it was more than 100 µM. Also, the LC50 in the assay with NCI-H522 is more than 100 µM; in the assay on MDA-MB-468 it was more than 100 µM; in the assay with KM12, 87.1 µM; with HOP-92, 49 µM; in the assay on CCRF-CEM, more than 100 µM. Further, the TGI is 9.77 µM in the assay on SF-295; 5.25 µM in the assay on HCC 2998 [4] (read-out: pTGI (converted)); 22.9 µM with MDA-MB-435 (read-out: pTGI (converted)); 52.5 µM in the assay on CAKI-1 [1]; 38 µM in the assay with HL-60(TB); 8.32 µM in [6] (read-out: pTGI (converted)). For the same compound, the TGI with PC-3 was more than 100 µM; in the assay on NCI-H522 (read-out: pTGI (converted)) it was 20 µM; with MDA-MB-468 (read-out: pTGI (converted)), more than 100 µM; in the assay on KM12 (read-out: pTGI (converted)), 8.51 µM; in the assay with HOP-92 it was 7.59 µM; in the assay with CCRF-CEM (read-out: pTGI), more than 100 µM. In the assay with HCC 2998 [5], the growth at 10 µM was -1.56%. Moreover, the CC50 with HL-60(TB) is more than 100 µM.

Broadly, the GI50 is the concentration that inhibits growth by half. Read a low GI50 as more potent growth inhibition. As usually defined, the LC50 is the concentration lethal to half of the exposed cells or organisms.
